System: Hela cells RCB 0007
Conditions: human

## O=C(/C=C/c1ccccc1)N[C@@H](c1ccccc1)[C@@H](OC(=O)c1ccccc1)C(=O)NC1CCCCC1 [Compound 4, (2R,3S)-Cyclohexyl 3-(N-cinnamoyl)amino-3-phenyl-2-benzoyloxypropanamide]
  cell death ratio: less than 10%

— publication PMC7127027 (Bioorganic & Medicinal Chemistry Letters, 2017)
